# According to patent US12285426B2, “Combination serotonin specific reuptake inhibitor and serotonin 1A receptor partial agonist for reducing L-DOPA-induced dyskinesia” (The Research Foundation for The State University of new York, priority 2018, dated 2025):
# How the values were obtained:
# [1] = tested on: dyskinesia; settings: human and animal studies; cited from earlier work
# [2] = tested on: L-DOPA-induced dyskinesia; experiment: FIG. 24: LID development over 14 days, vilazodone and/or amantadine; format: in vivo; settings: for ALO AIMs, LID development: over 14 days
# Text: FIGS. 24B-24E show percent intact+S.E.M. over time for the respective groups.
# [3] = cited from earlier work
# [4] = tested on: L-DOPA-induced dyskinesia; experiment: FIG. 23A-23C: ALO AIMs, vilazodone and/or amantadine with L-DOPA; settings: for ALO AIMs, combined amantadine and vilazodone: VZD 2.5 mg/kg, AMA 40 mg/kg, L-DOPA
# [5] = tested on: lesion-induced motor deficits; experiment: FIG. 23D: % intact stepping; format: in vivo; settings: L-DOPA alone or with AMA 40 mg/kg and/or VZD 2.5 mg/kg
# [6] = molecular target: TRPV1 ion channel (Homo sapiens, UniProt Q8NER1); settings: depending on the pharmacological assay; cited from earlier work
# [7] = tested on: extracellular levels of norepinephrine or dopamine; settings: 1 and 10 mg/kg; cited from earlier work
# [8] = tested on: L-DOPA-primed 6-OHDA-lesioned rats; 5-HT1AR
# [9] = molecular target: DAT (Homo sapiens, UniProt Q01959); settings: cited from earlier work
# [10] = tested on: 6-OHDA-lesioned rats, L-DOPA-induced dyskinesia; experiment: Experiment 1: AIMs, established LID in L-DOPA-primed hemi-parkinsonian rats; format: in vivo, rat
# [11] = tested on: L-DOPA-primed 6-OHDA-lesioned rats; 5-HT1BR; experiment: Experiment 3: AIMs with 5-HT1BR antagonist NAS-181; format: in vivo, rat; settings: VZD 10 mg/kg, NAS-181 3.0 mg/kg, LD 6 mg/kg s.c.
# Experimental: All 6-OHDA-lesioned rats (n=17) were tested on the FAS prior to treatment regimens to establish baseline motor performance. Three-weeks post-surgery, all rats were primed with L-DOPA (6 mg/kg, s.c.) for 14 days.
# Beginning 10 min post-treatment, a trained and blinded observer assigned a severity score (0-4) to each of the ALO AIMs based on 1 min ratings every 10 min for 3 h: 0, not present; 1, present from 1-29 s; 2, present 30-59s; 3, present all 60 s, but interruptible by a cylinder tap; 4, present 60 s and not interruptible by a cylinder tap.
# [12] = tested on: hemi-parkinsonian rats; experiment: Side effects during chronic Vilazodone treatment; format: in vivo, rat
# [13] = tested on: 6-OHDA-lesioned rats, forelimb akinesia; experiment: Experiment 2: forepaw adjusting steps (FAS); format: in vivo, rat
# Text: (§1) Forepaw adjusting steps (FAS): The FAS test is a measure of forelimb akinesia performed according to previous protocols (Bishop et al., 2012; Chang et al., 1999). Data are presented as mean percent intact stepping where the sum of the total steps with the lesioned forepaw was divided by the total steps with the unlesioned forepaw multiplied by 100. Lower percent intact scores indicate greater forelimb akinesia. Prior to baseline, rats received 2 acclimation periods. On-treatment FAS was performed 60 min post-L-DOPA.
# [14] = tested on: striatal c-Fos, PPD, PPE, PPT, 5-HT1AR mRNA; experiment: Experiment 2: real-time RT-PCR of striatal gene expression
# [15] = tested on: 6-OHDA-lesioned rats, L-DOPA-induced dyskinesias; experiment: Example 2: LIDs scoring in unilateral 6-OHDA-lesioned rats; format: in vivo, rat; settings: vilazodone 10 mg/kg or escitalopram 12.5 mg/kg + L-DOPA 5 mg/kg, 2 weeks
# Experimental: 6-OHDA-induced dopaminergic lesions: Adult male Sprague-Dawley rats were randomly assigned to groups receiving either a 6-OHDA or sham lesion. […] [[…] 2019]. […] Rats were treated for 5 consecutive days/week (Mon-Fri), for 2 weeks. […] All rats were evaluated three times per week for the presence of L-DOPA-induced dyskinesias (LIDs) (Wed-Fri) and once for the stepping test (Tue). […] Scores were given over 1 min epochs and classified as axial, limb, orolingual and locomotive. […] The severity of each LID was scored using a standard scale. Each dyskinetic behavior was given an intensity and frequency score, which were then multiplied. The average sum of the products of each LID was determined in each animal.
# [16] = molecular target: NET (Homo sapiens, UniProt P23975); settings: cited from earlier work
# [17] = tested on: 6-OHDA-lesioned rats, forelimb akinesia; experiment: Experiment 1: forepaw adjusting steps (FAS); format: in vivo, rat
# Text: as §1, with “Conti et al., 2014). […] Forepaw” for “Forepaw”
# [18] = tested on: striatum and DRN monoamines and metabolites; experiment: Experiment 1: HPLC of striatal and dorsal raphe tissue monoamines; format: in vivo, rat
# Experimental: Rats (n=30) were rendered hemi-parkinsonian with unilateral 6-OHDA lesions of the left MFB. Three-weeks post-lesion, animals were divided into 2 equally disabled groups, measured by forepaw adjusting steps (FAS, see below). One group (n=8) began receiving 14 days of daily vehicle (0.9% NaCl+0.1% ascorbic acid) and the other (n=22) received L-DOPA methyl ester (6 mg/kg, s.c.; Sigma)+DL-serine 2-(2,3,4-trihydroxybenzyl) hydrazine hydrochloride (benserazide; 15 mg/kg, s.c.; Sigma), hereafter L-DOPA, dissolved in vehicle at a volume of 1 mL/kg. […] Thereafter, L-DOPA-treated animals with Axial, Limb, and Orolingual (ALO) AIMs (see description below, FIG. 1A)<30 were excluded from the study and the remaining L-DOPA-treated animals were divided into 3 equally dyskinetic groups. […] Daily injections continued over 23 days, with behavior assayed on Days 15, 22, 29, and 36. On Day 37, animals were killed 60 min post-treatment. Left and right dorsal striata and DRN were dissected and flash frozen for HPLC analyses.
# High-performance liquid chromatography (HPLC): HPLC, a method for semi-automated catecholamine analysis with coulometric detection, was performed according to prior protocols (Bishop et al., 2009) to determine the tissue levels of monoamines, their metabolites, and monoamine turnover in the striatum and DRN. The limit of detection for DOPAC, DA, 5-hydroxyindoleacetic acid (5-HIAA) and 5-HT was 10^−10 M. Final oxidation current values were plotted on a standard curve from 10^−6 M to 10^−9 M and expressed as pg of monoamine or metabolite per mg of tissue unless otherwise specified.
# On the final treatment day, animals were sacrificed 60 min post-LD treatment and left and right striata and dorsal raphe nucleus (DRN) were collected for high performance liquid chromatography (HPLC) analysis. Values (means±standard mean error) are expressed as picograms of monoamine or metabolite per milligram wet tissue weight. Turnover estimates were determined by dividing a subject's metabolite value by its corresponding monoamine.
# [19] = tested on: 6-OHDA-lesioned rats, forelimb akinesia; experiment: Example 2: stepping test; format: in vivo, rat; settings: 60 minutes post L-DOPA
# Experimental: 6-OHDA-induced dopaminergic lesions: Adult male Sprague-Dawley rats were randomly assigned to groups receiving either a 6-OHDA or sham lesion. All rats received desipramine (10 mg/kg i.p.) 30 min prior to surgery to prevent the lesioning of norepinephrine neurons by 6-OHDA. A single injection of 6-OHDA (8 μg of 6-OHDA free base in 4 p of 0.1% ascorbic acid) was delivered into the right medial forebrain bundle (coordinates taken from bregma: −4.3 mm AP, 1.6 mm ML, −8.3 mm DV). The same experimental treatment was performed for the sham-operated rats using vehicle (4 μl of 0.1% ascorbic acid). A standard stepping test was used to evaluate the effectiveness of the 6-OHDA lesion.
# Rats were treated for 5 consecutive days/week (Mon-Fri), for 2 weeks. On the second day of each week, stepping tests were performed prior to drug administration, and 60 minutes post L-DOPA treatment.
# [20] = tested on: MSNs of dyskinetic 6-OHDA-lesioned rats; experiment: Example 2: electrophysiology of striatal MSNs; format: in vivo, rat; settings: co-administration with L-DOPA
# [21] = molecular target: T1, 5-HT1A receptor expressed in SF9 cells (Homo sapiens, UniProt P08908); settings: cited from earlier work
# T1 construct: expressed in transfected cells; host or cells: SF9 cells
# T1 sequence (P08908 1-422): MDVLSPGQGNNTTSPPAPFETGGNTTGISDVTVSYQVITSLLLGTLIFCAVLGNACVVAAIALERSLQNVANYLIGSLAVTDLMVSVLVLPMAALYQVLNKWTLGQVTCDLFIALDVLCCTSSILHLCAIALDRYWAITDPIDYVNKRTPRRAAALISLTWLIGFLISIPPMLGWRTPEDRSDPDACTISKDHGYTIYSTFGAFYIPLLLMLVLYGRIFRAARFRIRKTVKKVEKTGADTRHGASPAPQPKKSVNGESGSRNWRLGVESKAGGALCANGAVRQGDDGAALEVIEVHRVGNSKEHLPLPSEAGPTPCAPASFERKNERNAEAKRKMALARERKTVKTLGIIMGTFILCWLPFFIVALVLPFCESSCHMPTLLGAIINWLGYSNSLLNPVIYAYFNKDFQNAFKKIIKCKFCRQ
# [22] = tested on: 6-OHDA-lesioned rats, L-DOPA-induced dyskinesia; experiment: Experiment 2: AIMs, LID development in L-DOPA-naive hemi-parkinsonian rats; format: in vivo, rat; settings: VZD 10 or 20 mg/kg + LD 6 mg/kg, treatment naive, 3 weeks
# [23] = molecular target: SERT (Homo sapiens, UniProt P31645); settings: clinically effective dose range 5-20 mg/day; cited from earlier work
# Sequence of SERT (P31645 whole entry, species assumed): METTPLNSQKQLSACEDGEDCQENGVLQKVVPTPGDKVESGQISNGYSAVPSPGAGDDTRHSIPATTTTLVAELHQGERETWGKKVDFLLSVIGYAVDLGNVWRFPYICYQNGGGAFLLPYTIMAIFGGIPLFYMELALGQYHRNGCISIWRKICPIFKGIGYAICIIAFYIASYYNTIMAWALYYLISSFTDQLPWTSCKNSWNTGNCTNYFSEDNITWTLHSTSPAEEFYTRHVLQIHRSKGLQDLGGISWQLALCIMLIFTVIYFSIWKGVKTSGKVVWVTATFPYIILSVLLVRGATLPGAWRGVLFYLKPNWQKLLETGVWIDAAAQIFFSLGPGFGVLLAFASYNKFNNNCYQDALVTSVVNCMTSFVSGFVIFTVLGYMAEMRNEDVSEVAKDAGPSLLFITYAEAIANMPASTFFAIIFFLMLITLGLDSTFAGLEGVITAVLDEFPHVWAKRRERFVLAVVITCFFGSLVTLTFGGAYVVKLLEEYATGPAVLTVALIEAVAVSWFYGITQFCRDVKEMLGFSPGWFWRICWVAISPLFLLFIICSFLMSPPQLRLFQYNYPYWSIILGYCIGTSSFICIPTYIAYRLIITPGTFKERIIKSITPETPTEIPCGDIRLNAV
# Sequence of NET (P23975 whole entry): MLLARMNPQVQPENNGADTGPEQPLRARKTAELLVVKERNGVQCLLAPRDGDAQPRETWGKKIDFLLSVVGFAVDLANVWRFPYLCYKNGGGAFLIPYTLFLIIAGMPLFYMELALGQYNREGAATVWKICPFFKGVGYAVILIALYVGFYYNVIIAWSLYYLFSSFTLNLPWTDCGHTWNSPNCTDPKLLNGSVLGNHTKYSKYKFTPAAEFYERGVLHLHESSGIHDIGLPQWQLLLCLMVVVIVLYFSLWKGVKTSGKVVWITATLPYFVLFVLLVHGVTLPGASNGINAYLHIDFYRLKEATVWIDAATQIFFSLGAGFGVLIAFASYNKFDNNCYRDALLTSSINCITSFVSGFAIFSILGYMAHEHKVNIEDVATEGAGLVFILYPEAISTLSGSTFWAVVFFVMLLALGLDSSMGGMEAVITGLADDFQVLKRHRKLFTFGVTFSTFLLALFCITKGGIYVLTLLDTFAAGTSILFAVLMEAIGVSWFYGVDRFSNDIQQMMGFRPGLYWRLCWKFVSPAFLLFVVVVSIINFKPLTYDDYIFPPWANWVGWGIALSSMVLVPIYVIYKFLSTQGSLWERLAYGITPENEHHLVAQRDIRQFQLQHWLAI
# Sequence of DAT (Q01959 whole entry, species assumed): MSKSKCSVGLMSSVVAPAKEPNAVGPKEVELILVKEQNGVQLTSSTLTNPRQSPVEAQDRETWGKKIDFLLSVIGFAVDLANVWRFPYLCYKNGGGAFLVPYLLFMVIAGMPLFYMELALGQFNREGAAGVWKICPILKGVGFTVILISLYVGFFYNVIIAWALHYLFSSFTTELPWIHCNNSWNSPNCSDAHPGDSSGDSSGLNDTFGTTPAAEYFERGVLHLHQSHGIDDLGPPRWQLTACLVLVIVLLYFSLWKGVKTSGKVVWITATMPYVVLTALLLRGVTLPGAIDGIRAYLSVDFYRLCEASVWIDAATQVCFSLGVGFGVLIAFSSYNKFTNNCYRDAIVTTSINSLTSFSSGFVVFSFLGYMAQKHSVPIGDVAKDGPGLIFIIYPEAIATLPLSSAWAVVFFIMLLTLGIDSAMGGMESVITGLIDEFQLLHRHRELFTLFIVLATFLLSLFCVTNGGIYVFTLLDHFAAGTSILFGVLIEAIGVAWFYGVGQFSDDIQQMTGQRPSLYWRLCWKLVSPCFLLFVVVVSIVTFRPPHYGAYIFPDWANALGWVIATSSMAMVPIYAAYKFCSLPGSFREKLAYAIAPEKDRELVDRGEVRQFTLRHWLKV
# Sequence of TRPV1 ion channel (Q8NER1 whole entry): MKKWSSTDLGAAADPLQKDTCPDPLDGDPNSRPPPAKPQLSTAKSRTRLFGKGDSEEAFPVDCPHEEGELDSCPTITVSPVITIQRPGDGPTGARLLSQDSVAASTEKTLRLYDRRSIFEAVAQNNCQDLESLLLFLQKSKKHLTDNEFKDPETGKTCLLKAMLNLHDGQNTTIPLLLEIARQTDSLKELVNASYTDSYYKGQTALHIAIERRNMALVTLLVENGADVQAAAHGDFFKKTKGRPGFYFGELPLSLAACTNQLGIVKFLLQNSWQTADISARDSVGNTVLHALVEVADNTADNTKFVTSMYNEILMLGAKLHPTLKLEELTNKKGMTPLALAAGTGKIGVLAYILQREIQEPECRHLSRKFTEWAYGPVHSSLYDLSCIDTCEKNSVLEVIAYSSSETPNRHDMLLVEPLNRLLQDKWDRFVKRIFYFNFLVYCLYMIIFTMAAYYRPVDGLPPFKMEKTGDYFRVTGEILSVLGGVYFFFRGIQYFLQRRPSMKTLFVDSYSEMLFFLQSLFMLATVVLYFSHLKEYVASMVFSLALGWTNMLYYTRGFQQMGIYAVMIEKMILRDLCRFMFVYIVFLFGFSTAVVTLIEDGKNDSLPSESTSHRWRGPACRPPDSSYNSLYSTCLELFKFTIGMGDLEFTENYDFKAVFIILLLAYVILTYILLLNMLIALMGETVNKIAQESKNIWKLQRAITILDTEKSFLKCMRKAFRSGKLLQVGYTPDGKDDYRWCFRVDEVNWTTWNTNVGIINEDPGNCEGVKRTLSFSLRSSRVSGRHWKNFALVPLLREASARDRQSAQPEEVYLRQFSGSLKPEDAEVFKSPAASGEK
smiles,measurement,setting,value
"NC12CC3CC(CC(C3)C1)C2 [Amantadine, 1-adamantanamine]",EC50 (plasma level reducing dyskinesia by 50%),[1],"1,400 ng/mL"
same,"ALO AIMs, LID development",[2],"initially reduced AIMs, but this suppression diminished over time"
same,peak plasma concentrations,[3]; IR 100 mg twice a day,"< 1,000 ng/mL"
same,half-life,[3]; in vivo,around 17 hours
same,maximum plasma concentration,[3]; single dose 100 mg,around 220 ng/mL
same,side effects,[4]; AMA 60 mg/kg,appeared to produce side effects
same,ALO AIMs,"[4]; AMA 20, 40, 60 mg/kg + L-DOPA",did not appear to alter AIMs
same,"ALO AIMs, combined amantadine and vilazodone",[4],counteracted by Amantadine
same,% intact stepping,[5],may reduce improvements
Oc1cc2c(cc1O)CN(C(=S)NCCc1ccc(Cl)cc1)CCC2 [Capsazepine],IC50,[6],nanomolar to low micromolar range
"Cl.N#Cc1ccc2[nH]cc(CCCCN3CCN(c4ccc5oc(C(N)=O)cc5c4)CC3)c2c1 [Vilazodone, 5-{4-[4-(5-cyano-3-indolyl)-butyl]-1-piperazinyl}-benzofuran-2-carboxamide hydrochloride]",change in extracellular levels of norepinephrine or dopamine,[7],no change
same,LID duration (time course),[8]; VZD 10 mg/kg + LD 6 mg/kg,little effect on LID duration
same,peak dyskinesia (time course),[8]; VZD 10 mg/kg + LD 6 mg/kg,reduced peak dyskinesia
same,summed ALO AIMs,"[8]; VZD 10 mg/kg, WAY 0.5 mg/kg, LD 6 mg/kg s.c.",significantly reduced ALO AIMs
same,"ALO AIMs, LID development",[2],persistently reduced AIMs
same,"reduction of development and expression of LID, compared with Amantadine",[2]; validated rodent model,more effective than Amantadine
same,IC50,[9],37 nM
same,"ALO AIMs, established LID","[10]; VZD 10 or 20 mg/kg s.c. 5 min before LD 6 mg/kg, vs VZD(0)+LD(6), from first day, persisted throughout treatment",dramatically reduced AIMs
same,"anti-LID efficacy, 20 mg/kg vs 10 mg/kg",[10]; dissipated after the first week,initially had greater anti-LID efficacy than the lower dose
same,ALO AIMs,[11],significantly reduced ALO AIMs
same,"side effects, like 5-HT syndrome",[12],weren't observed at any time point
same,FAS vs baseline,[13]; LD 6 mg/kg alone or with VZD,"significant increases in stepping, relative to baseline, from Day 8 thereafter"
same,FAS vs VZD(0)+LD(6),"[13]; VZD 10 mg/kg + LD 6 mg/kg, by Day 15",significantly enhanced the pro-motor effects of L-DOPA
same,striatal PPE mRNA,"[14]; lesioned striata, LD 6 mg/kg, VZD 20 mg/kg, day 23","modestly, though significantly reduced"
same,striatal PPD mRNA,"[14]; lesioned striata, LD 6 mg/kg, VZD 10/20 mg/kg, day 23",dose-dependently attenuated
same,striatal c-Fos mRNA,"[14]; lesioned striata, LD 6 mg/kg, VZD 10 or 20 mg/kg, day 23",diminished by either dose
same,striatal 5-HT1AR mRNA,"[14]; rat, in vivo",did not affect striatal 5-HT1AR mRNA
same,striatal PPT mRNA,"[14]; rat, in vivo",reduced striatal PPT
same,LIDs severity,[15],most significant effect on attenuating LIDs
same,"ALO AIMs, combined amantadine and vilazodone",[4],continued to reduced AIMs
same,ALO AIMs,[4]; VZD 5 mg/kg + L-DOPA,moderately
same,ALO AIMs,[4]; VZD 1 and 2.5 mg/kg + L-DOPA,modestly reduced AIMs
same,IC50,[16],56 nM
same,FAS motor performance vs baseline,[17]; LD 6 mg/kg alone or with VZD 10/20 mg/kg,emerged 7 days later
same,FAS stepping vs VZD(0)+LD(6),"[17]; VZD 20 mg/kg, Day 29, transient",depressed stepping
same,5-HIAA,"[18]; Dorsal Raphe Nucleus, VZD(10)+LD(6) mg/kg s.c.",12541 pg/mg wet tissue weight
same,5-HT Turnover,"[18]; Striatum Lesion, VZD(10)+LD(6) mg/kg s.c.",8.38
same,DRN 5-HT,[18]; VZD 10 mg/kg + LD,significantly increased DRN 5-HT
same,striatal 5-HIAA,[18]; VZD 20 mg/kg,attenuated 5-HIAA compared to all other treatments
same,striatal 5-HT Turnover,[18]; VZD 20 mg/kg vs VZD(0)+LD(0),reduced 5-HT Turnover
same,DRN DA Turnover,[18]; VZD 10 or 20 mg/kg + LD,DA Turnover was attenuated
same,DRN 5-HT Turnover,[18]; both doses VZD + LD,attenuated 5-HT Turnover
same,DA in lesioned striatum (planned comparisons),[18]; both doses VZD vs VZD vehicle groups,significantly increased DA in the lesioned striatum
same,forelimb akinesia / L-DOPA therapeutic (prokinetic) efficacy,[19],no effects on forelimb akinesia or L-DOPA-induced prokinetic effects
same,spike probability and onset latency,[20],normalizes spike probability and onset latency
same,increase of [35S]GTPyS binding compared to vehicle,[21],fourfold
same,"ALO AIMs, LID development",[22],significantly attenuated the development of LID
Cc1ccc(Sc2ccccc2N2CCNCC2)c(C)c1 [Vortioxetine],SERT occupancy,[23],50 to 80%
